# Experimental data as given in patent US11452731B2, “Method of treating and preventing loss of cognition” (ENDORECHERCHE, INC., priority 2009, dated 2022).
# Test: Clinical trial ERC-205: DHEA 50 mg daily versus placebo on hot flushes in postmenopausal women (Example 10)
# Assay type: in vivo
# Conditions: 50 mg
# Experimental: Postmenopausal women experiencing moderate or severe hot flushes per week (as determined by a two week diary) were randomized to receive a daily dose of either placebo or 50 mg DHEA. Fifty evaluable participants (25 patients per arm) were treated for four months with a daily assessment of hot flushes recorded in a diary completed by each participant.
# Postmenopausal women aged 40 to 70 years with moderate or severe hot flushes per week, as confirmed by a two-week screening hot flush diary were enrolled after signing informed consent. The protocol was approved by the Institutional Review Board (IRB) of Le Centre Hospitalier de l'Université Laval and by Health Canada.
# The primary endpoint was the change from Baseline in the weekly frequency of moderate to severe hot flushes at Week 16, after four months of treatment. The objectives also included the change from Baseline in the weekly frequency of all hot flushes and the change from Baseline in the weekly weighted severity score.
# The response endpoint is the patient's paper diary which was filled in daily to specify the number and type of hot flushes as follows:
# The hot flush diary began as a Screening diary for two weeks prior to randomization whereby patients had to complete the diary daily, recording the number and severity of hot flushes. The patients had to record an average of 50 or more moderate or severe hot flushes per week over the two-week period to be eligible (i.e., at least 100 hot flushes documented on the two week Screening diary).
# Once randomized, the patient completed eight, two-week hot flush diaries upon beginning study medication. The diaries had to be filled out on a daily basis. The first diary was completed over the first two weeks and be returned on the two week visit. The second two-week diary was completed over the next two weeks of the first four week treatment period and was returned at the four week visit. At 4, 8, 12 and 16 week visits, two two-week diaries for hot flushes were collected.
# [1] = strata 50 to 70 hot flushes per week at screening, Week 16
# [2] = strata ≥71 hot flushes per week at screening, Screening (mean of 2 w), baseline
# [3] = strata ≥71 hot flushes per week at screening, Week 1
# [4] = strata ≥71 hot flushes per week at screening, Week 2
# [5] = strata ≥71 hot flushes per week at screening, Week 3
# [6] = strata ≥71 hot flushes per week at screening, Week 4
# [7] = strata ≥71 hot flushes per week at screening, Week 5
# [8] = strata ≥71 hot flushes per week at screening, Week 6
# [9] = strata ≥71 hot flushes per week at screening, Week 7
# [10] = strata ≥71 hot flushes per week at screening, Week 8
# [11] = strata ≥71 hot flushes per week at screening, Week 9
# [12] = strata ≥71 hot flushes per week at screening, Week 10
# [13] = strata ≥71 hot flushes per week at screening, Week 11
# [14] = strata ≥71 hot flushes per week at screening, Week 12
# [15] = strata ≥71 hot flushes per week at screening, Week 13
smiles,measurement,setting,value
"C[C@]12CC[C@H](O)CC1=CC[C@@H]1[C@@H]2CC[C@]2(C)C(=O)CC[C@@H]12 [DHEA, dehydroepiandrosterone]",WEIGHTED SEVERITY SCORE OF HOT FLUSHES PER WEEK (MEAN),"strata 50 to 70 hot flushes per week at screening, Week 15",83.7
same,NUMBER OF ALL HOT FLUSHES PER WEEK (MEAN),[1],35.7
same,NUMBER OF MODERATE TO SEVERE HOT FLUSHES PER WEEK (MEAN),[1],32.7
same,WEIGHTED SEVERITY SCORE OF HOT FLUSHES PER WEEK (MEAN),[1],81.6
same,NUMBER OF ALL HOT FLUSHES PER WEEK (MEAN),[2],91.0
same,NUMBER OF MODERATE TO SEVERE HOT FLUSHES PER WEEK (MEAN),[2],88.5
same,WEIGHTED SEVERITY SCORE OF HOT FLUSHES PER WEEK (MEAN),[2],241.6
same,NUMBER OF ALL HOT FLUSHES PER WEEK (MEAN),[3],68.6
same,NUMBER OF MODERATE TO SEVERE HOT FLUSHES PER WEEK (MEAN),[3],64.1
same,WEIGHTED SEVERITY SCORE OF HOT FLUSHES PER WEEK (MEAN),[3],175.2
same,NUMBER OF ALL HOT FLUSHES PER WEEK (MEAN),[4],57.9
same,NUMBER OF MODERATE TO SEVERE HOT FLUSHES PER WEEK (MEAN),[4],53.5
same,WEIGHTED SEVERITY SCORE OF HOT FLUSHES PER WEEK (MEAN),[4],150.8
same,NUMBER OF ALL HOT FLUSHES PER WEEK (MEAN),[5],57.5
same,NUMBER OF MODERATE TO SEVERE HOT FLUSHES PER WEEK (MEAN),[5],52.5
same,WEIGHTED SEVERITY SCORE OF HOT FLUSHES PER WEEK (MEAN),[5],149.8
same,NUMBER OF ALL HOT FLUSHES PER WEEK (MEAN),[6],62.7
same,NUMBER OF MODERATE TO SEVERE HOT FLUSHES PER WEEK (MEAN),[6],57.8
same,WEIGHTED SEVERITY SCORE OF HOT FLUSHES PER WEEK (MEAN),[6],166.5
same,NUMBER OF ALL HOT FLUSHES PER WEEK (MEAN),[7],60.0
same,NUMBER OF MODERATE TO SEVERE HOT FLUSHES PER WEEK (MEAN),[7],53.2
same,WEIGHTED SEVERITY SCORE OF HOT FLUSHES PER WEEK (MEAN),[7],154.1
same,NUMBER OF ALL HOT FLUSHES PER WEEK (MEAN),[8],53.9
same,NUMBER OF MODERATE TO SEVERE HOT FLUSHES PER WEEK (MEAN),[8],47.6
same,WEIGHTED SEVERITY SCORE OF HOT FLUSHES PER WEEK (MEAN),[8],138.7
same,NUMBER OF ALL HOT FLUSHES PER WEEK (MEAN),[9],52.2
same,NUMBER OF MODERATE TO SEVERE HOT FLUSHES PER WEEK (MEAN),[9],46.7
same,WEIGHTED SEVERITY SCORE OF HOT FLUSHES PER WEEK (MEAN),[9],137.2
same,NUMBER OF ALL HOT FLUSHES PER WEEK (MEAN),[10],48.9
same,NUMBER OF MODERATE TO SEVERE HOT FLUSHES PER WEEK (MEAN),[10],43.3
same,WEIGHTED SEVERITY SCORE OF HOT FLUSHES PER WEEK (MEAN),[10],129.0
same,NUMBER OF ALL HOT FLUSHES PER WEEK (MEAN),[11],47.0
same,NUMBER OF MODERATE TO SEVERE HOT FLUSHES PER WEEK (MEAN),[11],41.1
same,WEIGHTED SEVERITY SCORE OF HOT FLUSHES PER WEEK (MEAN),[11],121.8
same,NUMBER OF ALL HOT FLUSHES PER WEEK (MEAN),[12],46.9
same,NUMBER OF MODERATE TO SEVERE HOT FLUSHES PER WEEK (MEAN),[12],41.6
same,WEIGHTED SEVERITY SCORE OF HOT FLUSHES PER WEEK (MEAN),[12],121.6
same,NUMBER OF ALL HOT FLUSHES PER WEEK (MEAN),[13],42.8
same,NUMBER OF MODERATE TO SEVERE HOT FLUSHES PER WEEK (MEAN),[13],36.4
same,WEIGHTED SEVERITY SCORE OF HOT FLUSHES PER WEEK (MEAN),[13],110.2
same,NUMBER OF ALL HOT FLUSHES PER WEEK (MEAN),[14],39.3
same,NUMBER OF MODERATE TO SEVERE HOT FLUSHES PER WEEK (MEAN),[14],33.1
same,WEIGHTED SEVERITY SCORE OF HOT FLUSHES PER WEEK (MEAN),[14],98.7
same,NUMBER OF ALL HOT FLUSHES PER WEEK (MEAN),[15],39.3
same,NUMBER OF MODERATE TO SEVERE HOT FLUSHES PER WEEK (MEAN),[15],33.9
same,WEIGHTED SEVERITY SCORE OF HOT FLUSHES PER WEEK (MEAN),[15],102.8
same,NUMBER OF ALL HOT FLUSHES PER WEEK (MEAN),"strata ≥71 hot flushes per week at screening, Week 14",37.3
